Experimental data: US8822503B2, “2-pyridone compounds” (Taisho Pharmaceutical Co., Ltd, priority 2009, dated 2014)

Biological target: T1, human liver GK (Homo sapiens, UniProt P35557)
T1 construct: GST (glutathione S-transferase) (N); made in house; host or cells: E. coli
T1 sequence (P35557 1-466 isoform P35557-2): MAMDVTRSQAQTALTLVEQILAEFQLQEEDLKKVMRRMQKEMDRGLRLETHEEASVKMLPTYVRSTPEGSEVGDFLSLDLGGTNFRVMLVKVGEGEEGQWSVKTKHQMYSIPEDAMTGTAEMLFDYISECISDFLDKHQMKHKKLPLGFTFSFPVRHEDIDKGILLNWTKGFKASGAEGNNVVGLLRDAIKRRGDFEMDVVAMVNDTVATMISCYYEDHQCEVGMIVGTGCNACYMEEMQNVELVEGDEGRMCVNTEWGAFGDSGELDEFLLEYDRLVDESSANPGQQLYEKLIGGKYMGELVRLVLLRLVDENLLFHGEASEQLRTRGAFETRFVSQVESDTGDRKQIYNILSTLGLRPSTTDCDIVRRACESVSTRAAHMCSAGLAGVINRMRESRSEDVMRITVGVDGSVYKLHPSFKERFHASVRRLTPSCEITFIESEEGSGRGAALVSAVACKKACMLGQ
Test: GK activation test
Assay type: biochemical
Conditions: test compound concentration needed to activate 50% of maximum activation ability; 4 mM 14C-labeled glucose, 2 mM ATP, room temperature, 20 minutes
Procedure: The GK activation test for the test compounds was performed by the method of Irwin A. Rose et al. (J. Biol. Chem. 1964 January; 239:12-7) with partial modifications.
The enzyme source used in this assay, human liver GK, was expressed in E. coli as a fusion protein with GST (glutathione S-transferase) added to the amino terminus and was purified using Glutathione Sepharose 4B (Amersham Biosciences).
The test was carried out using flat-bottom 96-well plates (Sumitomo Bakelite Co., Ltd.). A solution of the test compound in dimethyl sulfoxide (DMSO) and DMSO as a control were added to each well of the plates at a final DMSO concentration of 1%. 25 mM Hepes-KOH (pH=7.1), 25 mM KCl, 2 mM MgCl2, 2 mM ATP, 4 mM ^14C-labeled glucose (Muromachi Yakuhin) and 1 mM DTT (dithiothreitol) were further added at the indicated final concentrations, respectively. Finally, human liver GK was added at 0.24 microgram per well and the reaction was started. The reaction was carried out at room temperature.
After 20 minutes, AG1-X4 resin (BioRad) suspended in 25 mM Hepes-KOH (pH=7.1) was added and the reaction product, labeled glucose 6-phosphate, was allowed to bind thereto. The whole volume was transferred to MultiScreen plates (Millipore) and the resin was washed with water. Thereafter, the labeled glucose 6-phosphate binding to the resin was eluted with a 0.5 M NaCl solution. The labeling activity of the eluted labeled glucose 6-phosphate was measured as an index of GK activity.
The GK activity maximally activated by the test compound was described as maximum activation ability, and the test compound concentration needed to activate 50% of that ability was described as EC50.

| Compound | EC50 [nM] |
| --- | --- |
| CCc1ccc(C(CC2CCCC2)c2ccc(SC)cc2)[nH]c1=O (centres unmarked) [Example 2-6, 6-{2-Cyclopentyl-1-[4-(methylsulfanyl)phenyl]ethyl}-3-ethylpyridin-2(1H)-one] | 500 to 3000 |
| O=C1CC[C@H](/C=C(\c2ccc(S(=O)(=O)C3CC3)cc2)c2ccc(C(F)(F)F)c(=O)[nH]2)C1 [Example 1-63, 6-{(E)-1-[4-(Cyclopropylsulfonyl)phenyl]-2-[(1S)-3-oxocyclopentyl]ethenyl}-3-(trifluoromethyl)pyridin-2(1H)-one] | 500 to 3000 |
| O=C1CC[C@H](/C=C(\c2ccc(S(=O)(=O)Cc3ccccc3)c(Cl)c2)c2ccc(C3CC3)c(=O)[nH]2)N1 [Example 4-293, 6-{(E)-1-[4-(Benzylsulfonyl)-3-chlorophenyl]-2-[(2R)-5-oxopyrrolidin-2-yl]ethenyl}-3-cyclopropylpyridin-2(1H)-one] | 10 to 500 |
| O=C1CC[C@H](CC(c2ccc(Cl)c(F)c2)c2ccc(C3CC3)c(=O)[nH]2)N1 (single isomer, unassigned) [Example 4-217] | 500 to 3000 |
| O=C1CC[C@H](/C=C(/c2ccc(C3CC3)c(=O)[nH]2)c2ccc(Cl)cc2C(F)(F)F)N1 [Example 4-110, 6-{(E)-1-[4-Chloro-2-(trifluoromethyl)phenyl]-2-[(2R)-5-oxopyrrolidin-2-yl]ethenyl}-3-cyclopropylpyridin-2(1H)-one] | 500 to 3000 |
| CC(C)(C)c1ccc(/C(=C\[C@H]2CCC(=O)N2)c2ccc(CCc3ccccc3)c(=O)[nH]2)cc1 [Example 4-196, 6-{(E)-1-(4-tert-Butylphenyl)-2-[(2R)-5-oxopyrrolidin-2-yl]ethenyl}-3-(2-phenylethyl)pyridin-2(1H)-one] | 10 to 500 |
| CCOc1ccc(C(C[C@H]2CCC(=O)N2)c2ccc(Cl)c(=O)[nH]2)cc1F (stereo partly drawn) [Example 4-241, 3-Chloro-6-{1-(4-ethoxy-3-fluorophenyl)-2-[(2R)-5-oxopyrrolidin-2-yl]ethyl}pyridin-2(1H)-one] | 3000 to 10000 |
| O=C1CC[C@H](CC(c2ccc(OC(F)F)c(Cl)c2)c2ccc(C3CC3)c(=O)[nH]2)N1 (single isomer, unassigned) [Example 4-357] | 3000 to 10000 |
| CCc1ccc(/C(=C/[C@H]2CCC(=O)C2)c2ccc(SCCCN(CC)CC)c(Cl)c2)[nH]c1=O [Example 1-77, 6-{(E)-1-(3-Chloro-4-{[3-(diethylamino)propyl]sulfanyl}phenyl)-2-[(1S)-3-oxocyclopentyl]ethenyl}-3-ethylpyridin-2(1H)-one] | 10 to 500 |

Second part, the compound after the results:

| EC50 [nM] | Compound |
| --- | --- |
| 10 to 500 | Cc1cc(/C(=C\[C@H]2CCC(=O)N2)c2ccc(C3CC3)c(=O)[nH]2)ccc1Cl [Example 4-107, 6-{(E)-1-(4-Chloro-3-methylphenyl)-2-[(2R)-5-oxopyrrolidin-2-yl]ethenyl}-3-cyclopropylpyridin-2(1H)-one] |
| 500 to 3000 | Cc1cc(/C(=C\[C@H]2CCC(=O)N2)c2ccc(C3CC3)c(=O)[nH]2)ccc1F [Example 4-113, 3-Cyclopropyl-6-{(E)-1-(4-fluoro-3-methylphenyl)-2-[(2R)-5-oxopyrrolidin-2-yl]ethenyl}pyridin-2(1H)-one] |
| 10 to 500 | CCCOc1ccc(/C(=C\[C@H]2CCC(=O)N2)c2ccc(C3CC3)c(=O)[nH]2)cc1Cl [Example 4-280, 6-{(E)-1-(3-Chloro-4-propoxyphenyl)-2-[(2R)-5-oxopyrrolidin-2-yl]ethenyl}-3-cyclopropylpyridin-2(1H)-one] |
| 10 to 500 | CC(C)CCCOc1ccc(/C(=C\[C@H]2CCC(=O)N2)c2ccc(Cl)c(=O)[nH]2)cc1Cl [Example 4-21, 3-Chloro-6-{(E)-1-{3-chloro-4-[(4-methylpentyl)oxy]phenyl}-2-[(2R)-5-oxopyrrolidin-2-yl]ethenyl}pyridin-2(1H)-one] |
| 3000 to 10000 | NC(=O)c1ccc(/C(=C\[C@H]2CCC(=O)N2)c2ccc(Cl)c(=O)[nH]2)cc1 [Example 4-160, 4-{(E)-1-(5-Chloro-6-oxo-1,6-dihydropyridin-2-yl)-2-[(2R)-5-oxopyrrolidin-2-yl]ethenyl}benzamide] |
